Measurements taken from US9403756B2, “N-phenyl anthranilic acid derivatives and uses thereof” (Ramot at Tel-Aviv University Ltd., priority 2007, dated 2016).
Entries after “also recorded” stand apart in the source; their conditions may differ.

Columns and labels:
Format in all cases: cell-based
IKS = molecular target: T1, IKS (Homo sapiens, UniProt P51787); test: Kv channel selectivity, Xenopus oocytes: IKS; settings: +30 mV
T1 construct: expressed in transfected cells; host or cells: Xenopus oocytes
Protocol: Voltage-clamp measurements in Xenopus oocytes were performed as previously described.
The selectivity of NH29 on other relevant Kv channels expressed in Xenopus oocytes was also studied, and the results are summarized in Table 3 below. The specificity of NH29 at 25 μM and 50 μM towards various Kv channels was tested in Xenopus oocytes, except for Kv1.2 which was checked in transfected CHO cells. The current amplitude of the various Kv channels was tested at the indicated voltages and the effect of the drugs was expressed as fold of the control amplitude measured under the same conditions in the absence of the drug. The data in Table 3 are expressed as mean±SEM of 5-7 separate experiments.

Kv7.3 mutant A315T = molecular target: T2, Kv7.3 mutant A315T (Homo sapiens, UniProt O43525, A315T); test: Activation of Kv7.3 mutant A315T
T2 construct: expressed in transfected cells
Source text: Among the Kv7 channel family, NH29 appeared to act as an opener of Kv7.2 but not of Kv7.1 and Kv7.4.

TRPV6 channel = molecular target: T3, TRPV6 channel (Homo sapiens, UniProt Q9H1D0); test: TRPV6 currents in transfected CHO cells; settings: 25 μM NH29; −80 mV to 100 mV
T3 construct: expressed in transfected cells; host or cells: CHO cells
Protocol: FIGS. 15A-C present the lack of effect of NH29, an exemplary compound according to some embodiments of the present invention, on TRPV6 channel. FIG. 15A presents superimposed representative traces recorded from a CHO cell transfected with TRPV6 before (marked control) during (marked 165s) and after (marked wash) external application of 25 μM NH29, and wherein the membrane potential was stepped from −80 mV to 100 mV for 40 seconds pulse duration (protocol shown in upper panel). The current amplitude was measured at peak current points (marked a 1 at −80 mV and a2 at +100 mV) and plotted as a function of recording time (FIGS. 15B and 15C respectively).
Chinese hamster ovary (CHO) cells were grown in Dulbecco's modified Eagle's medium (DMEM) supplemented with 2 mM glutamine, 10% fetal calf serum and antibiotics. Briefly, 40,000 cells seeded on poly-D-lysine-coated glass coverslips (13 mm diameter) in a 24-multiwell plate were transfected with pIRES-CD8 (0.5 μg) as a marker for transfection, and with Kv7.2 (0.5 μg) and Kv7.3 (0.5 μg) or TRPV1 […] or TRPV6 […].
For electrophysiology, transfected cells were visualized approximately 40 hours following transfection, using anti-CD8 antibody-coated beads. Transfection was performed using Fugene 6 (Roche, Indianapolis Ind., USA) according to the manufacturer's protocol. […]

KCNQ2 mutant S121A = molecular target: T4, KCNQ2 mutant S121A (Homo sapiens, UniProt O43526, S121A); test: KCNQ2 S1-S2 mutant S121A in CHO cells; settings: 25 μM NH29
T4 construct: expressed in transfected cells; host or cells: CHO cells
Source text: FIGS. 12A-F present the potentiating effect of NH29, an exemplary channel opener compound according to embodiments of the present invention, on selected KCNQ2 mutants. Shown are bar diagrams comparing the potentiating effect of NH29 on native KCNQ2 and KCNQ2 mutants, wherein the mutated amino acids are located at the S1-S2 helix region (FIG. 12A) or S4 helix region (FIG. 12D) and wherein the opener effect is expressed as percent of the control current in the absence of the opener. For comparison, marked as a green line, is the observed current increase of native KCNQ2 by NH29. FIGS. 12B 12C, 12E and 12F present representative traces recorded from CHO cell transfected with the KCNQ2 mutant S122A, S121A, L206C and R201A respectively, before and after external application of 25 μM of NH29 and wherein the membrane potential was stepped from −90 mV holding potential to −40 mV for 1.5 seconds pulse duration.
Voltage-clamp recordings in CHO cells were performed, using the whole-cell configuration of the patch-clamp technique. Signals were amplified using an Axopatch 200B patch-clamp amplifier (Molecular Devices, Sunnyvale, Calif.), sampled at 2 kHz and filtered at 800 Hz via a 4-pole Bessel low pass filter. […] Series resistances (3-13 MΩ) were compensated (75-90%) and periodically monitored.

T1 sequence (P51787 whole entry): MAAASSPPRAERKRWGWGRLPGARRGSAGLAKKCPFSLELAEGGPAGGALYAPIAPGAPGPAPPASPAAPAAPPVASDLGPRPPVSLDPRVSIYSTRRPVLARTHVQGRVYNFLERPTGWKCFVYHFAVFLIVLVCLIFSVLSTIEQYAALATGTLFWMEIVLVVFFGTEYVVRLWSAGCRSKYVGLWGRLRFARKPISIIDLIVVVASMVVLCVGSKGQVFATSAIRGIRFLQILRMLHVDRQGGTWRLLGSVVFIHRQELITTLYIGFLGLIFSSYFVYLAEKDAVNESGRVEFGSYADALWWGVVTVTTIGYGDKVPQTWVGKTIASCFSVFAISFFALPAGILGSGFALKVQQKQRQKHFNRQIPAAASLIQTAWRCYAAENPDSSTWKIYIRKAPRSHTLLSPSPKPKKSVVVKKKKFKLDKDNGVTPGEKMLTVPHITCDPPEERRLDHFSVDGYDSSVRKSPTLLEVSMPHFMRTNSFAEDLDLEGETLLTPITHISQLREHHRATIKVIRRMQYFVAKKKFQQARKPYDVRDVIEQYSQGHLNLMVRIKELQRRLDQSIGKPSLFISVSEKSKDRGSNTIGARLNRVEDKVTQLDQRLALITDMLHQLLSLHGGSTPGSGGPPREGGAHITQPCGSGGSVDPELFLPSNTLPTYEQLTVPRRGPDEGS
T3 sequence (Q9H1D0 whole entry): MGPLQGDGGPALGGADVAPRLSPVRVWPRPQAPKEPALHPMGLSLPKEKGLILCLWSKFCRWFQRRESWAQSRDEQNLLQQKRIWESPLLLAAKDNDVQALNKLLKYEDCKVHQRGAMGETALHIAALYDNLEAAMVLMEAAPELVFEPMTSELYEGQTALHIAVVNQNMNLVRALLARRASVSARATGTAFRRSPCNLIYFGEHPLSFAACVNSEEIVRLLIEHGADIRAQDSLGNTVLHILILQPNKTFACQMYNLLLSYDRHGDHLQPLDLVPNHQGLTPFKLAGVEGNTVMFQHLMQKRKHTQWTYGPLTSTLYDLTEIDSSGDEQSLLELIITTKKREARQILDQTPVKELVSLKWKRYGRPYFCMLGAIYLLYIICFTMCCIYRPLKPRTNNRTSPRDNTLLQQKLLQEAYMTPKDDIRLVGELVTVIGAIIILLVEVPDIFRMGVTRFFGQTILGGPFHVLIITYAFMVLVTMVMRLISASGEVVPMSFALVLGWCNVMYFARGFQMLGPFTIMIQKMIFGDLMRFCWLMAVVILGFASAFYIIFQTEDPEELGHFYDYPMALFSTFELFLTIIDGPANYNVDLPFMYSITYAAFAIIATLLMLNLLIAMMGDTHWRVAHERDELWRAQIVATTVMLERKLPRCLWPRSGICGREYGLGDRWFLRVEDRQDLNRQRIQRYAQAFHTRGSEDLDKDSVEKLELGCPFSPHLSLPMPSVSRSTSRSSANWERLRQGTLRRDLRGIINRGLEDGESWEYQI
T2 sequence (O43525 whole entry A315T): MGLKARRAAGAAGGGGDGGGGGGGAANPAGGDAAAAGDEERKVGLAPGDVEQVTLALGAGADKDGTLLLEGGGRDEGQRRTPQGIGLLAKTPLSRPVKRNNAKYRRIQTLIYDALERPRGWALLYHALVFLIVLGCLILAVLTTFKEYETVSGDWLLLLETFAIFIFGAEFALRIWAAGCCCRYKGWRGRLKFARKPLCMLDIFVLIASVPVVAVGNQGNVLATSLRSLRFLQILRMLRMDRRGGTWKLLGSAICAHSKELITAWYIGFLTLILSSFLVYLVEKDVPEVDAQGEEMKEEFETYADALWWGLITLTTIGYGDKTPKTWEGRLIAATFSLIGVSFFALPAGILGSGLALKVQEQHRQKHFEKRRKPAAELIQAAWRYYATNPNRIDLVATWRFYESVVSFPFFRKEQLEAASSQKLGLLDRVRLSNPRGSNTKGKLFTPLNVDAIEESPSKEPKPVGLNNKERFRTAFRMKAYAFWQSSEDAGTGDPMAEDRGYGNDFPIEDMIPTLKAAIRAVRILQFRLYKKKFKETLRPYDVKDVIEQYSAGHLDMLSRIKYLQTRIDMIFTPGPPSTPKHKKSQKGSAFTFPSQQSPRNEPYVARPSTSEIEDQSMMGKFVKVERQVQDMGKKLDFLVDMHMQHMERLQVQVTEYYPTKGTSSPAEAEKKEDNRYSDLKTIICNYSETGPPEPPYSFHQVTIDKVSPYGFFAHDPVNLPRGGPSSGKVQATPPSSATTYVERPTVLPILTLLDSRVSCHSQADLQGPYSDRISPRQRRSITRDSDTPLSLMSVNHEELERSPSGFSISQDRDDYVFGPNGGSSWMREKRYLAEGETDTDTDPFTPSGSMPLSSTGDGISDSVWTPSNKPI
T4 sequence (O43526 whole entry S121A): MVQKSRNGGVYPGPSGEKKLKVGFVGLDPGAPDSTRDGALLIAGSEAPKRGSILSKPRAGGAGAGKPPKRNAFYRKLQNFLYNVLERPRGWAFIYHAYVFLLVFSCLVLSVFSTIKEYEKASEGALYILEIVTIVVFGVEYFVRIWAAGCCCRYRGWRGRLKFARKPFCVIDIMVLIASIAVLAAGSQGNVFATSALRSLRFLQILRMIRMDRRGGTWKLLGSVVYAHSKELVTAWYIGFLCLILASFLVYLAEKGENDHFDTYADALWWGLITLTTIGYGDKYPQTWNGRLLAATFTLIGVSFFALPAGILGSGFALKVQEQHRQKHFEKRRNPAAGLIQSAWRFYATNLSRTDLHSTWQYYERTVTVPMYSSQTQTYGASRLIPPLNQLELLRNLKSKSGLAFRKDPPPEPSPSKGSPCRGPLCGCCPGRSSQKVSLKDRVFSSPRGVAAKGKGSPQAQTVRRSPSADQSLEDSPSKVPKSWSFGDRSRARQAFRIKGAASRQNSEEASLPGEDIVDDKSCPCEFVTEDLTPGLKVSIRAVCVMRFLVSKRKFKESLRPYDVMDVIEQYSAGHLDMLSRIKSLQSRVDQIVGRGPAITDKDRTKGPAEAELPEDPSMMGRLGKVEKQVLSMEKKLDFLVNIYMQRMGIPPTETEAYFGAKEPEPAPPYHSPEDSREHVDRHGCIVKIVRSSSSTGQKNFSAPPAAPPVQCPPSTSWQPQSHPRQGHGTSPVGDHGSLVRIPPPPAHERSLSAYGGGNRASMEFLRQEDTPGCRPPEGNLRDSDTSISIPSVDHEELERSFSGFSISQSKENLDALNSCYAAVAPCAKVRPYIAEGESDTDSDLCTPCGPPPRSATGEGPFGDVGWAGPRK

## O=C(Cc1cc([N+](=O)[O-])cc([N+](=O)[O-])c1Nc1c(Cl)cc([N+](=O)[O-])cc1Cl)NCCO [NH29]
IKS; 25 μM
  Fold current amplitude: 1.02 ± 0.04 fold
IKS; 50 μM
  Fold current amplitude: 0.97 ± 0.04 fold
Kv7.3 mutant A315T
  activation of Kv7.3 mutant A315T: could also activate Kv7.3
TRPV6 channel
  modulation of TRPV6 current: lack of modulation; also recorded: no similar inhibition of TRPV6 was observed
KCNQ2 mutant S121A
  fold activation of current: 2 fold
